The text below walks through data of US4847254A, “CNS affecting 5-oxy-3-aminomethyl-dihydro-benzofurans and benzothiophenes” (H. Lundbeck A/S, priority 1987, dated 1989).

Assay [1] deals with postsynaptic DA-receptors. The note with it: reversal of locomotor depression in DA-depleted rats; statement in words; cited from earlier work.
The subject of assay [2] is postsynaptic DA-receptors. Nature of the assay: Reversal of locomotor depression (hypomotility) in reserpine plus alpha-methyl-p-tyrosine pretreated rats. The class given is in vivo, rat (Wistar).
The test system of another assay is DA-receptor. As to the kind of experiment: Contralateral circling in rats with unilateral 6-hydroxy-DA (6-OHDA) lesions. In kind it is in vivo, rat (Wistar). Conditions: 6-OHDA-lesioned rats, doses calculated as the free amine. The procedure: Furthermore, the potency of the drug to induce contralateral circling behaviour in 6-hydroxy-DA-lesioned rats was determined. The specificity of this receptor resembles that of the […] DA receptors mediating motility inhibition.
The experiments were made according to published methods, using rats of the Wistar strain.
Therefore, also the ability of a test compound to induce contralateral circling in rats with unilateral 6-hydroxy-DA lesions was evaluated (loc cit.).

The subject of another assay is DA-autoreceptors. Nature of the assay: Inhibition of spontaneous locomotor activity (motility inhibition) in rats. Conditions: doses calculated as the free amine. In kind it is in vivo, rat (Wistar).
Assay [3] has as its system presynaptic DA-receptors (DA-autoreceptors). Conditions: cited from earlier work.
The test system of a further assay is DA receptors. Nature of the assay: DA stimulating properties / effect at pre- and postsynaptic DA receptors (general statement). In kind it is in vivo. The note with it: statement in words.

For `CCCN1CCC[C@@H](c2cccc(O)c2)C1` [(--)-3-PPP, reference compound], the “effect in reserpine plus alpha-methyl-p-tyrosine model” value in assay [1] is reported as “without effect”. Besides, in assay [2], the “Reserpin α-Mt Rev. rats (sc) ED50” value was over 67 µmol/kg. In the assay with DA-receptor, the “6-OHDA Contr. Circle. rats (sc) ED50” value is 0.77 µmol/kg. In addition, the “Motility Inh. rats (sc) ED50” value with DA-autoreceptors was 4.2 to 11 µmol/kg.
Turning to `CN1CCc2cccc3c2[C@H]1Cc1ccc(O)c(O)c1-3` [Apomorphine, apomorphine, reference compound], the “clinical success at low doses” value in assay [3] (low doses, patients with schizophrenia and tardive dyskinesias) was “used with some success”. Also, the “selectivity of action at DA autoreceptors vs postsynaptic DA receptors” value in assay [3] (postsynaptic DA receptors stimulated by slightly higher doses) was “no selective action at DA autoreceptors”. Besides, the “Reserpin α-Mt Rev. rats (sc) ED50” value in assay [2] came to 0.27 µmol/kg. In addition, the “6-OHDA Contr. Circle. rats (sc) ED50” value in the assay on DA-receptor was 0.06 µmol/kg. The “Motility Inh. rats (sc) ED50” value in the assay with DA-autoreceptors is 0.64 µmol/kg.
For the compound `CCCN(CCC)CC1CCc2ccccc21` (stereo not drawn) [Lu 21-091, N,N-Dipropyl-1-indanmethylamine], the DA stimulating properties result in the assay with DA receptors is on record as “without any DA stimulating properties”. Besides, in the assay with DA-receptor, the “6-OHDA Contr. Circle. rats (sc) ED50” value was over 62 µmol/kg. In addition, the “Motility Inh. rats (sc) ED50” value with DA-autoreceptors was over 62 µmol/kg.
Take `CCCN(C)CC1COc2ccc(O)cc21` (single isomer, unassigned; (+)) [Lu 25-020, (+)-5-hydroxy-2,3-dihydro-N-methyl-N-propyl-3-benzofuranmethylamine]: in assay [2], the “Reserpin α-Mt Rev. rats (sc) ED50” value was 65 µmol/kg. In addition, the “6-OHDA Contr. Circle. rats (sc) ED50” value with DA-receptor is 0.95 µmol/kg. Moreover, the “Motility Inh. rats (sc) ED50” value in the assay with DA-autoreceptors was 4.1 µmol/kg.
For `CCCN(C)CC1CCc2ccc(O)cc21` (stereo not drawn) [Lu 25-009, 6-Hydroxy-N-methyl-N-propyl-1-indanmethylamine], in assay [2], the “Reserpin α-Mt Rev. rats (sc) ED50” value stood at 66 µmol/kg. The “6-OHDA Contr. Circle. rats (sc) ED50” value with DA-receptor is 0.82 µmol/kg. Besides, the “Motility Inh. rats (sc) ED50” value with DA-autoreceptors is 0.65 µmol/kg.
In the same order, the values of `CCCN(CCC)CC1CCc2ccc(O)cc21` (single isomer, unassigned; (-)) [Lu 22-050, (-)-N,N-dipropyl-6-hydroxy-1-indanmethylamine] are 60 µmol/kg, 0.45 µmol/kg and 1.3 µmol/kg.
`CCCN(CCC)CC1COc2ccc(O)cc21` (stereo not drawn) [Lu 23-130, 5-Hydroxy-2,3-dihydro-N,N-dipropyl-3-benzofuranmethylamine]: the “Reserpin α-Mt Rev. rats (sc) ED50” value in assay [2] stood at 3.4 µmol/kg. Also, in the assay on DA-receptor, the “6-OHDA Contr. Circle. rats (sc) ED50” value was 0.35 µmol/kg. Further, the “Motility Inh. rats (sc) ED50” value in the assay with DA-autoreceptors was 0.5 to 2 µmol/kg.
Take `CCN(CC)CC1CCc2ccc(O)cc21` (stereo not drawn) [Lu 21-096, N,N-diethyl-6-hydroxy-1-indanmethylamine]: the “Reserpin α-Mt Rev. rats (sc) % at 5 μmol/kg” value in assay [2] worked out at 50%. For the same compound, the “6-OHDA Contr. Circle. rats (sc) ED50” value with DA-receptor is 0.19 µmol/kg. Also, in the assay on DA-autoreceptors, the “Motility Inh. rats (sc) ED50” value was 1.0 µmol/kg.
Take `CN(C)CC1CCc2ccc(O)cc21` (stereo not drawn) [Lu 21-112, N,N-dimethyl-6-hydroxy-1-indanmethylamine]: the “Reserpin α-Mt Rev. rats (sc) ED50” value in assay [2] was found to be 12 µmol/kg. For the same compound, in the assay with DA-receptor, the “6-OHDA Contr. Circle. rats (sc) ED50” value is 0.95 µmol/kg. In addition, in the assay on DA-autoreceptors, the “Motility Inh. rats (sc) ED50” value is 5.7 µmol/kg.
As to `CCCN(CCC)CC1COc2ccc(O)cc21` (single isomer, unassigned; (-)) [Lu 24-121, (-)-5-hydroxy-2,3-dihydro-N,N-dipropyl-3-benzofuranmethylamine], the “Reserpin α-Mt Rev. rats (sc) ED50” value in assay [2] was determined as 86 µmol/kg. Besides, in the assay with DA-receptor, the “6-OHDA Contr. Circle. rats (sc) ED50” value was 1.7 µmol/kg. Further, the “Motility Inh. rats (sc) ED50” value in the assay on DA-autoreceptors was 5.4 µmol/kg.
Consider `CCCN(CCc1ccccc1)CC1CCc2ccc(O)cc21` (stereo not drawn) [Lu 21-113, 6-Hydroxy-N-propyl-N-(2-phenylethyl)-1-indanmethylamine], for which the “Reserpin α-Mt Rev. rats (sc) % at 5 μmol/kg” value in assay [2] came to 63%. Also, in the assay on DA-receptor, the “6-OHDA Contr. Circle. rats (sc) ED50” value is 0.12 µmol/kg. In the assay with DA-autoreceptors, the “Motility Inh. rats (sc) ED50” value is 0.51 µmol/kg.
As for `CCCN(CCc1ccccc1)CC1COc2ccc(O)cc21` (stereo not drawn) [Lu 24-084, 5-Hydroxy-2,3-dihydro-N-(2-phenylethyl)-N-propyl-3-benzofuranmethylamine], the “Reserpin α-Mt Rev. rats (sc) ED50” value in assay [2] worked out at 11 µmol/kg. Moreover, the “6-OHDA Contr. Circle. rats (sc) ED50” value in the assay with DA-receptor was 0.94 µmol/kg. Besides, the “Motility Inh. rats (sc) ED50” value with DA-autoreceptors was 1.9 µmol/kg.
